According to US9920017B2, “Heterocyclic compounds as pesticides” (BAYER CROPSCIENCE AKTIENGESELLSCHAFT, priority 2014, dated 2018):
Read-outs that look alike come from different tables or passages of the source.

Experiments:
Boophilus microplus = Boophilus microplus injection test; format: in vivo; details: 20 μg/animal injected into engorged adult female cattle ticks; assessed after 7 days by laying of fertile eggs
Experimental: Boophilus microplus—Injection Test
(§1) Solvent: dimethyl sulphoxide
To produce an appropriate active ingredient formulation, 10 mg of active ingredient are mixed with 0.5 ml of solvent and the concentrate is diluted with solvent to the desired concentration.
1 μl of the active ingredient solution is injected into the abdomen of 5 engorged adult female cattle ticks (Boophilus microplus). The animals are transferred into dishes and kept in a climate-controlled room.
Efficacy is assessed after 7 days by laying of fertile eggs. Eggs which are not visibly fertile are stored in a climate-controlled cabinet for about another 42 days until the larvae hatch. An efficacy of 100% means that none of the ticks has laid any fertile eggs; 0% means that all the eggs are fertile.

Lucilia cuprina = Lucilia cuprina test; format: in vivo; details: 100 ppm; L1 larvae; after 2 days
Experimental: Lucilia cuprina Test Solvent: dimethyl sulphoxide To produce an appropriate active ingredient formulation, 10 mg of active ingredient are mixed with 0.5 ml of dimethyl sulphoxide, and the concentrate is diluted with water to the desired concentration. About 20 L1 larvae of the Australian sheep blowfly (Lucilia cuprina) are transferred into a test vessel containing minced horsemeat and the active ingredient preparation of the desired concentration. After 2 days, the kill in % is determined 100% means that all the larvae have been killed; 0% means that no larvae have been killed.

Musca domestica = Musca domestica test; format: in vivo; details: 100 ppm; adult houseflies; after 2 days
Experimental: Musca domestica Test Solvent: dimethyl sulphoxide To produce an appropriate active ingredient formulation, 10 mg of active ingredient are mixed with 0.5 ml of dimethyl sulphoxide, and the concentrate is diluted with water to the desired concentration. Vessels containing a sponge treated with sugar solution and the active ingredient formulation of the desired concentration are populated with 10 adult houseflies (Musca domestica). After 2 days, the kill in % is determined 100% means that all of the flies have been killed; 0% means that none of the flies have been killed.

Meloidogyne incognita = Meloidogyne incognita test (MELGIN); format: in vivo; details: 20 ppm; lettuce; after 14 days
Experimental: Meloidogyne incognita Test (MELGIN) Solvent: 125.0 parts by weight of acetone To produce a suitable active ingredient formulation, 1 part by weight of active ingredient is mixed with the stated amount of solvent and the concentrate is diluted with water to the desired concentration. Vessels are filled with sand, active ingredient solution, an egg/larvae suspension of the southern root-knot nematode (Meloidogyne incognita) and lettuce seeds. The lettuce seeds germinate and the plants develop. The galls develop on the roots. After 14 days, the nematicidal efficacy in % is determined by the formation of galls. 100% means that no galls were found; 0% means that the number of galls on the treated plants corresponds to the untreated control.

[1] = Determination of log P values by HPLC (reversed-phase C18); format: physicochemical; details: for chromatographic logP: reversed-phase C18 HPLC column
Procedure, shortened: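 Log P per EEC Directive 79/831 Annex V.A8 by reversed-phase C18 HPLC at 55 °C, […], gradient 10→95% acetonitrile in 4.25 min. Calibrated with unbranched alkan-2-ones (C3–C16) by retention-time interpolation; lambda max from UV spectra 200–400 nm.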

Tetranychus urticae = Tetranychus urticae spray test, OP-resistant; format: in vivo; details: 500 g/ha, bean leaf discs, after 6 days
Experimental: Tetranychus urticae—Spray Test, OP-Resistant
Solvent: 78.0 parts by weight of acetone • • 1.5 parts by weight of dimethylformamide
(§2) Emulsifier: alkylaryl polyglycol ether
(§3) To produce an appropriate active ingredient formulation, 1 part by weight of active ingredient is dissolved using the stated parts by weight of solvent and made up with water containing an emulsifier concentration of 1000 ppm until the desired concentration is attained. To produce further test concentrations, the preparation is diluted with emulsifier-containing water.
Discs of bean leaves (Phaseolus vulgaris) infested by all stages of the greenhouse red spider mite (Tetranychus urticae) are sprayed with an active ingredient formulation of the desired concentration.
After 6 days, the efficacy in % is determined. 100% means that all the spider mites have been killed; 0% means that no spider mites have been killed.

Myzus persicae = Myzus persicae spray test; format: in vivo; details: 500 g/ha; Chinese cabbage leaf discs; after 6 days
Experimental: Myzus persicae—Spray Test
Solvent: 78 parts by weight of acetone • • 1.5 parts by weight of dimethylformamide
as §2, §3
Discs of Chinese cabbage leaves (Brassica pekinensis) infested by all stages of the green peach aphid (Myzus persicae) are sprayed with an active ingredient formulation of the desired concentration.
After 6 days, the efficacy in % is determined 100% means that all the aphids have been killed; 0% means that no aphids have been killed.

Cooperia curticei = Cooperia curticei test; format: in vivo; details: 20 ppm; nematode larvae; after 5 days
Experimental: as §1
To produce an appropriate active ingredient formulation, 10 mg of active ingredient are mixed with 0.5 ml of dimethyl sulphoxide and the concentrate is diluted with “Ringer's solution” to the desired concentration.
Vessels containing the active ingredient formulation of the desired concentration are populated with about 40 nematode larvae (Cooperia curticei).
After 5 days, the kill in % is determined 100% means that all the larvae have been killed; 0% means that none of the larvae have been killed.

Haemonchus contortus = Haemonchus contortus test; format: in vivo; details: 20 ppm; larvae; after 5 days
Experimental: Haemonchus contortus Test Solvent: dimethyl sulphoxide To produce an appropriate active ingredient formulation, 10 mg of active ingredient are mixed with 0.5 ml of dimethyl sulphoxide and the concentrate is diluted with “Ringer's solution” to the desired concentration. Vessels containing the active ingredient formulation of the desired concentration are populated with about 40 larvae of the red stomach worm (Haemonchus contortus). After 5 days, the kill in % is determined 100% means that all the larvae have been killed; 0% means that none of the larvae have been killed.

[2] = HPLC, reversed-phase C18, 55° C., final compounds table

SMILES	efficacy (Boophilus microplus) [%]	efficacy (kill) (Lucilia cuprina) [%]	efficacy (kill) (Musca domestica) [%]	nematicidal efficacy (formation of galls) (Meloidogyne incognita) [%]	log P neutral [1, 2]	also measured
O=C(Nc1ncn(-c2c(F)cccc2F)n1)c1ccccc1C(F)(F)F [Compound I-1-11, 2-Trifluoromethyl-N-[1-(2,6-difluorophenyl)-1H-1,2,4-triazol-3-yl]benzamide]	100	100	80	90	–	chromatographic logP ([1]; pH 3.4, HPLC-MS, preparation examples, read-out: log P): 1.97; chromatographic logP ([1]; HPLC, reversed-phase C18, 55° C., final compounds table, read-out: log P neutral): 1.97
Cc1cc(C)c([S+]([O-])CC(F)(F)F)cc1-n1cnc(NC(=O)c2ccccc2C(F)(F)F)n1 (stereo not shown) [Compound I-1-90]	–	–	–	–	2.31	efficacy (Tetranychus urticae): 95%
O=C(Nc1ncn(-c2ccccc2Br)n1)c1ccccc1I [Compound I-1-72]	–	–	–	–	2.09	efficacy (Myzus persicae): 90%
O=C(Nc1ncn(-c2c(F)cccc2F)n1)c1ccccc1I [Compound I-1-21]	–	–	–	100	1.89	efficacy (kill) (Cooperia curticei): 100%; efficacy (kill) (Haemonchus contortus): 80%
O=C(Nc1ncn(-c2c(F)cccc2F)n1)c1nccnc1C(F)(F)F [Compound I-1-24]	100	100	80	100	1.73	–
